Test results from patent publication US20090247611A1, “METHOD OF TREATING A CANCER WITH A SURVIVIN ANTISENSE OLIGONUCLEOTIDE AND PACLITAXEL” (priority 2004, published 2009).

Tests used:
HeLa cells = experiment: cell based caspase 3 assay; conditions: oligonucleotide 50 nM transfected 24 h, then 10 nM gemcitabine HCl or 1.25 nM paclitaxel for additional 48 h, compared to untreated control
Procedure: The assay is performed as described below.
HeLa cells are obtained from ATCC, Manassas, Va. and are cultured in DMEM with L-Glutamine medium (Gibco/Invitrogen) supplemented with 10% Fetal Bovine Serum (Hyclone), 0.1 mM Non-Essential Amino Acids, and 1 mM Sodium Pyruvate (Gibco/Invitrogen). For the caspase-3 assay, 96-well plates are plated with 1×10^4 cells/well. […] Caspases-3 activity is measured by reading proteolytically released fluor from the Ac-DEVD-AMC substrate using a plate-reading fluorometer with excitation at 360 nm and emission at 460 nm. After subtracting the plate background, the relative fluorescence units (RFU) are compared to untreated control and expressed as percentage increase in caspase-3 activity.
To investigate whether down-regulation of Survivin expression sensitizes HeLa cells to chemotherapy, combination treatment with Compound I and either gemcitabine HCl, doxorubicin HCl, or paclitaxel is evaluated. […] At the end of the incubation period, casapse-3 activity is measured. […] Data are expressed as percentage caspase-3 activity compared to untreated control.

[1] = test system: U-87 MG human glioblastoma; experiment: human xenograft tumor model, tumor growth delay; assay type: in vivo; conditions: U-87 MG s.c. xenograft; oligonucleotide 50 mg/kg loading then 25 mg/kg i.v. every other day; gemcitabine HCl 2.5 mg/kg i.p. every third day x4
Procedure: The use of human xenograft tumor models has been described previously and is well known in the art. The following tumor types can be used to conduct the assay as described below. U-87 MG human glioblastoma are obtained from […] et al., Neoplasia (2000) 2(3):242-50). For xenograft studies, just before implantation, animals are irradiated (450 TBI (total body irradiation)), and cells are mixed in matrigel (1:1). […] All subsequent intravenous doses (25 mg/kg) of Compound I or MM control oligonucleotide are administered every other day. The treatment with sub-optimal doses of gemcitabine HCl, doxorubicin HCl, or paclitaxel is initiated one day following the loading dose. Gemcitabine HCl is administered intraperitoneally at 2.5 mg/kg every third day for a total of four doses. Paclitaxel is administered intravenously at 1 mg/kg every fourth day for a total of four doses. Bi-dimensional measurements are performed twice per week, and tumor volumes are calculated based on the following formula: […] Tumor volume data are transformed to a log scale to equalize variance across time and treatment groups. The data are analyzed using a two-way analysis of variance by time and treatment using SAS PROC MIXED software (SAS Institute, Inc., Cary, N.C.). The preferred correlation model for the repeated measures is AR (Auto Regressive of order 1). Treatment groups are compared at each time point. The data are plotted as means and standard errors for each treatment group versus time. The presence of synergy in combination therapies is assessed on the tumor growth delay (TGD) scale. The time to reach a specified tumor size (1500 or 2000 or 2500 mg in this study) is determined for each animal. […] Maximum likelihood analysis assuming a Weibull distribution is used to calculate mean times and standard errors for each treatment group. Tumor growth delay is the difference in mean times between each of the treated groups and the control group.

Row | SMILES | Mean (% Caspase-3 Activity) (HeLa cells) | Tumor Growth Delay at 1500 mg, Mean ± S.E.M. [1] | Tumor Growth Delay at 2000 mg, Mean ± S.E.M. [1] | Tumor Growth Delay at 2500 mg, Mean ± S.E.M. [1]
1 | Cl.Nc1ccn([C@@H]2O[C@H](CO)[C@@H](O)C2(F)F)c(=O)n1 (single isomer, unassigned) [Gemcitabine HCl, 2′-deoxy-2′,2′-difluorocytidine monohydrochloride (⊖-isomer)] | 24.33% | 0.3 ± 1.1 days | 0.3 ± 1.2 days | 0.6 ± 1 days
2 | CC(=O)O[C@H]1C(=O)[C@@]2(C)[C@H]([C@H](OC(=O)c3ccccc3)[C@]3(O)C[C@H](OC(=O)[C@H](O)[C@@H](NC(=O)c4ccccc4)c4ccccc4)C(C)=C1C3(C)C)[C@]1(OC(C)=O)CO[C@@H]1C[C@@H]2O [Paclitaxel, 5β, 20-Epoxy-1,2α,4,7β,10β,13α-hexahydroxytax-11-en-9-one 4,10-diacetate 2-benzoate 13-ester with (2R,3 S)—N-benzoyl-3-phenylisoserine] | 12.77% | – | – | –
